From DBAASP
Converted amounts (≈) assume the structure as drawn. “And” between values parts separate entries of the source, which are not always exact repeats. Equal values may be shown once.

Assays:
Assay in all cases: ≥ marks a high value that may be exact or a test limit, other limits are often not marked, values filed in µg/mL are converted to µM
[1] = system: Pseudomonas aeruginosa PAO239
[2] = system: Stenotrophomonas maltophilia
[3] = system: Enterococcus faecalis NCTC 12697
[4] = system: Fusobacterium nucleatum NCTC 10562
[5] = system: Klebsiella pneumoniae ATCC 700603
[6] = system: Acinetobacter baumannii I NM8
[7] = system: Staphylococcus aureus ATCC 25923
[8] = system: Pseudomonas aeruginosa ATCC 27853
[9] = system: Escherichia coli ATCC 25922
[10] = system: Candida albicans NCTC 3179
[11] = system: Streptococcus mutans ATCC 10449
[12] = system: Streptococcus gordonii Challis DL1
[13] = system: Streptococcus sanguinis NY101
[14] = system: Streptococcus mitis ATCC 903
[15] = system: Veillonella atypica PK1910
Streptococcus mutans = system: Streptococcus mutans
[16] = system: Lacticaseibacillus casei ATCC 4646
[17] = system: Pseudomonas aeruginosa PAO1
Klebsiella pneumoniae M6 = system: Klebsiella pneumoniae M6
Escherichia coli LEC001 = system: Escherichia coli LEC001
[18] = system: Acinetobacter baumannii ATCC 17978
[19] = system: Candida albicans ATCC 90028
[20] = system: Acinetobacter baumannii AYE
[21] = system: Escherichia coli ATCC 25726
[22] = system: Pseudomonas aeruginosa NCTC 13437
[23] = system: Klebsiella pneumoniae NCTC 13368
[24] = system: Escherichia coli NCTC 12923
[25] = system: Staphylococcus aureus NCTC 13616
[26] = system: Staphylococcus aureus ATCC 9144
[27] = system: Staphylococcus aureus USA 300
[28] = system: Rhodococcus rhodochrous X15
[29] = system: Bacillus licheniformis X39
[30] = system: Enterococcus faecium 091299
[31] = system: Enterococcus faecalis 981
[32] = system: Candida albicans ATCC 2002
[33] = system: Psychrobacter faecalis X29
[34] = system: Staphylococcus carnosus KHS
Escherichia coli B = system: Escherichia coli B
Staphylococcus aureus = system: Staphylococcus aureus
[35] = system: Pseudomonas aeruginosa 3320
[36] = system: Candida albicans F7-39/IDE99
[37] = system: Pseudomonas aeruginosa ATCC 15692
[38] = system: Staphylococcus aureus ATCC 29213
[39] = system: Staphylococcus aureus 547582
Bacillus subtilis 168 = system: Bacillus subtilis 168
[40] = system: Listeria monocytogenes KCTC 3710

For `CC[C@H](C)[C@H](NC(=O)[C@H](CCCCN)NC(=O)[C@H](CC(C)C)NC(=O)[C@H](C)NC(=O)[C@H](CCCCN)NC(=O)CNC(=O)[C@H](CC(C)C)NC(=O)[C@@H](NC(=O)[C@H](CO)NC(=O)CNC(=O)[C@H](CC(C)C)NC(=O)CN)C(C)C)C(=O)NCC(=O)N[C@@H](C)C(=O)N[C@@H](CC(N)=O)C(=O)N[C@@H](CC(C)C)C(=O)N[C@@H](CC(C)C)C(N)=O` [GLGSVLGKALKIGANLL], the MIC [1] was 25 µM (≈ 40.6 µg/mL), the MIC [2] was 4 µM (≈ 6.49 µg/mL) and the MIC [3] was ≥ 100 µM. The MIC [4] was 6.25 µM (≈ 10.1 µg/mL), the MIC [5] was 25 µM (≈ 40.6 µg/mL) and the MIC [6] was 6 µM (≈ 9.74 µg/mL). For the same compound, the MIC [7] was 6 µM (≈ 9.74 µg/mL), the MIC [8] was 25 µM (≈ 40.6 µg/mL) and the MIC [9] was 12.5 µM (≈ 20.3 µg/mL). The MIC [10] was ≥ 50 µM and the MIC [11] was 3.1 µM (≈ 5.03 µg/mL).

`CC(C)C[C@H](NC(=O)[C@H](CC(C)C)NC(=O)[C@H](Cc1cnc[nH]1)NC(=O)[C@H](Cc1cnc[nH]1)NC(=O)[C@H](CC(C)C)NC(=O)[C@H](CCCCN)NC(=O)[C@H](CCCCN)NC(=O)[C@H](CC(C)C)NC(=O)[C@H](CC(C)C)NC(=O)[C@H](CCCN=C(N)N)NC(=O)[C@H](CCCN=C(N)N)NC(=O)[C@H](Cc1c[nH]c2ccccc12)NC(=O)[C@@H](N)CCCN=C(N)N)C(=O)N[C@@H](Cc1cnc[nH]1)C(=O)NCC(=O)NCC(=O)NCC(=O)N[C@@H](Cc1ccccc1)C(=O)N[C@@H](CCCCN)C(=O)N[C@@H](CCCCN)C(=O)N[C@@H](Cc1ccccc1)C(=O)N[C@@H](Cc1c[nH]c2ccccc12)C(=O)N[C@@H](CCCCN)C(=O)N[C@@H](Cc1c[nH]c2ccccc12)C(=O)N[C@@H](Cc1ccccc1)C(=O)N[C@@H](CCCN=C(N)N)C(=O)N[C@@H](CCCN=C(N)N)C(=O)N[C@@H](Cc1ccccc1)C(N)=O` [RWRRLLKKLHHLLHGGGFKKFWKWFRRF] showed an MIC [12] of 4.28 µM (≈ 16 µg/mL), an MIC [13] of 4.28 µM (≈ 16 µg/mL) and an MIC [14] of 8.57 µM (≈ 32 µg/mL). It also gave an MIC [15] of 2.14 µM (≈ 8 µg/mL), an MIC (Streptococcus mutans) of 1.51 µM (≈ 5.66 µg/mL) and an MIC [16] of 2.14 µM (≈ 8 µg/mL).

With `CSCC[C@H](NC(=O)[C@H](CCSC)NC(=O)[C@H](CCCCN)NC(=O)CNC(=O)[C@@H](NC(=O)[C@@H](NC(=O)[C@H](CCCCN)NC(=O)[C@H](CC(C)C)NC(=O)CNC(=O)[C@H](Cc1ccccc1)NC(=O)[C@H](CCCCN)NC(=O)[C@H](Cc1ccccc1)NC(=O)[C@H](C)NC(=O)[C@H](CCCCN)NC(=O)CNC(=O)[C@H](CC(C)C)NC(=O)[C@H](CC(C)C)NC(=O)[C@H](CO)NC(=O)CNC(=O)[C@H](CC(C)C)NC(=O)CN)[C@@H](C)O)C(C)C)C(=O)NCC(=O)NCC(=O)N[C@@H](C)C(=O)N1CCC[C@H]1C(=O)N[C@@H](CCCN=C(N)N)C(=O)N[C@@H](CCC(=O)O)C(=O)N[C@@H](CCC(N)=O)C(=O)O` [GLGSLLGKAFKFGLKTVGKMMGGAPREQ] the MIC [17] was > 44.5 µM, the MIC (Klebsiella pneumoniae M6) was 5.56 µM (≈ 16 µg/mL) and the MIC (Escherichia coli LEC001) was 2.78 µM (≈ 8 µg/mL). It also gave an MIC [18] of 1.39 µM (≈ 4 µg/mL), an MIC [19] of 25 µM (≈ 72 µg/mL) and an MIC [20] of 1.39 µM (≈ 4 µg/mL). For the same compound, the MIC [21] was 3 µM (≈ 8.64 µg/mL), the MIC [22] was ≥ 44.5 µM and the MIC [23] was 11.1 µM (≈ 32 µg/mL). The MIC [24] was 2.78 µM (≈ 8 µg/mL), the MIC [25] was 1.39 µM (≈ 4 µg/mL) and the MIC [26] was 1.39 µM (≈ 4 µg/mL). It also gave an MIC [7] of 6 µM (≈ 17.3 µg/mL) and an MIC [27] of 2.78 µM (≈ 8 µg/mL).

`CC[C@H](C)[C@H](NC(=O)[C@H](CC(C)C)NC(=O)[C@@H]1CCCN1C(=O)[C@H](CC(C)C)NC(=O)[C@@H](N)Cc1ccccc1)C(=O)N[C@@H](C)C(=O)N[C@@H](CO)C(=O)N[C@@H](CC(C)C)C(=O)N[C@@H](C)C(=O)N[C@@H](C)C(=O)N[C@@H](CC(N)=O)C(=O)N[C@@H](Cc1ccccc1)C(=O)N[C@H](C(=O)N1CCC[C@H]1C(=O)N[C@@H](CCCCN)C(=O)N[C@H](C(=O)N[C@@H](Cc1ccccc1)C(=O)N[C@H]1CSSC[C@@H](C(=O)O)NC(=O)[C@H](CCCCN)NC(=O)[C@H](CCCCN)NC(=O)[C@H]([C@@H](C)O)NC(=O)[C@H]([C@@H](C)CC)NC(=O)[C@H](CCCCN)NC1=O)[C@@H](C)CC)C(C)C` [FLPLIASLAANFVPKIFCKITKKC] gave an MIC [28] of 1.2 µM (≈ 3.2 µg/mL), an MIC [29] of 2.4 µM (≈ 6.39 µg/mL) and an MIC [30] of 19 µM (≈ 50.6 µg/mL). It also gave an MIC [31] of 19 µM (≈ 50.6 µg/mL), an MIC [32] of 2.4 µM (≈ 6.39 µg/mL) and an MIC [33] of 4.8 µM (≈ 12.8 µg/mL). The MIC [34] was 4.8 µM (≈ 12.8 µg/mL), the MIC [7] was 1.2 µM (≈ 3.2 µg/mL) and the MIC [9] was 150 µM (≈ 400 µg/mL).

With `CSCC[C@H](NC(=O)CNC(=O)[C@H](Cc1ccccc1)NC(=O)CN)C(=O)N[C@@H](C)C(=O)N[C@@H](CC(C)C)C(=O)N[C@@H](CCCCN)C(=O)N[C@@H](CC(C)C)C(=O)N[C@@H](CC(C)C)C(=O)N[C@@H](CCCCN)C(=O)N[C@@H](CCCCN)C(=O)N[C@H](C(=O)N[C@@H](CC(C)C)C(N)=O)C(C)C` [GFGMALKLLKKVL] the MIC (Escherichia coli B) was 3 µM (≈ 4.25 µg/mL), the MIC (Staphylococcus aureus) was 3.7 µM and 4.43 µM and the MIC [35] was 8 µM (≈ 11.3 µg/mL). For the same compound, the MIC [36] was 6.3 µM (≈ 8.93 µg/mL), the MIC [37] was 6.25 µM (≈ 8.86 µg/mL) and the MIC [38] was 3.13 µM (≈ 4.43 µg/mL). For the same compound, the MIC [39] was 8 µM (≈ 11.3 µg/mL), the MIC (Bacillus subtilis 168) was 1.3 µM (≈ 1.84 µg/mL) and the MIC [40] was 25 µM (≈ 35.4 µg/mL). For the same compound, the MIC [7] was 3.13 µM (≈ 4.43 µg/mL), the MIC [8] was 6.25 µM (≈ 8.86 µg/mL) and the MIC [9] was 6.25 µM (≈ 8.86 µg/mL).
